The values that follow come from publication PMC9610410, “Pelargonium sidoides Root Extract: Simultaneous HPLC Separation, Determination, and Validation of Selected Biomolecules and Evaluation of SARS-CoV-2 Inhibitory Activity” (Pharmaceuticals, 2022).

In series [1] the test system is SARS-CoV-2. Briefly: microbe, parasite or virus in culture. The following applies: for IC50: Severe acute respiratory syndrome coronavirus 2, Vero C1008, SARS-CoV-2-induced cytopathic effect in Vero E6 cells; for Selectivity Index (SI): antiviral activity relative to cellular toxicity (CC50/IC50), Vero E6. Format: cell-based.
A short description of series [2]: MTT cytotoxicity assay against normal cell line (Vero E6). The settings on record: African green monkey, Vero E6 cells.
In series [3] the test system is SARS-CoV-2. Details: method as in PMID 34214752. The following applies: cited from earlier work; for IC50: SARS-CoV-2 in Vero E6 cells, positive controls reported by the same laboratory.
A short description of a further series: in vitro. The settings on record: African green monkey.
Another series has as its system Vero E6 cells. The settings on record: positive controls reported by the same laboratory; cited from earlier work.

Read-outs that look alike come from different tables or passages of the source.

For the molecule `Oc1cc(O)c2c(c1)O[C@H](c1ccc(O)c(O)c1)[C@@H](O)C2` [Catechin, (+)−catechin], in the series with SARS-CoV-2 [1], the half-inhibitory concentration (IC50) – broadly, the point on the concentration scale where inhibition reaches its midpoint – turned out to be 58.55 ± 0.088 µM and the “Selectivity Index (SI)” value was found to be 0.9. This molecule yielded a CC50 in series [2] of 52.76 ± 0.079 µM.

Regarding `CCN(CC)CCCC(C)Nc1ccnc2cc(Cl)ccc12` (stereo not shown) [Chloroquine], in the series with SARS-CoV-2 [3], the IC50 was 22.7 µM.

As for `O=C(O)c1cc(O)c(O)c(O)c1` [Gallic acid, 3,4,5-trihydroxybenzoic acid], in the series “in vitro”, the CC50 is 439.7 ± 0.065 µM. Besides, in the series on SARS-CoV-2 [1], the IC50 was found to be 96.41 ± 0.03 µM and the “Selectivity Index (SI)” value was 4.6.

Regarding `CCN(CCO)CCCC(C)Nc1ccnc2cc(Cl)ccc12` (stereo not shown) [Hydroxychloroquine], the IC50 in the series on SARS-CoV-2 [3] was 32.8 µM. Moreover, the “Selectivity Index (SI)” value in the series with SARS-CoV-2 [3] (positive controls) is given as 10.85. For the same molecule, the CC50 with Vero E6 cells is 356 µM.

In the series “in vitro”, `COc1cc2ccc(=O)oc2cc1O` [Scopoletin, 7-hydroxy-6-methoxycoumarin] yielded a CC50 of 253.1 ± 0.45 µM. In the series with SARS-CoV-2 [1], the IC50 is 17.8 ± 0.91 µM and the “Selectivity Index (SI)” value is reported as 14.22.

With `COc1c(O)cc2oc(=O)ccc2c1OC` [Umckalin, 7-hydroxy-5,6-dimethoxycoumarin], in the series on SARS-CoV-2 [1], the IC50 was determined as 311.6 ± 0.043 µM and the “Selectivity Index (SI)” value turned out to be 0.5. Moreover, in series [2], the CC50 turned out to be 164.1 ± 0.54 µM.
